Earlier results in patent US20220265666A1, “METHODS OF TREATING SUBSTANCE ABUSE DISORDER, DYSPNEA, TINNITUS, AND CHILD AND ADOLESCENT DEPRESSION” (Praxis Precision Medicines, Inc., priority 2019, published 2022).
Like-named read-outs stand apart in the source and are kept apart here.

Columns and labels:
[1] = test system: tinnitus behavior; details: non-clinical models of tinnitus
[2] = test system: patients with well controlled asthma
[3] = test system: symptoms of tinnitus; details: clinical studies
[4] = test system: craving to cocaine; details: clinical studies
[5] = second day, same patients, previous inhalation with diazepam
[6] = first day of testing, methacholine inhalation 6 mg/mL, no diazepam, 12 patients

CNC1(c2ccccc2Cl)CCCCC1=O (stereo not drawn) [ketamine]
effect on tinnitus behavior [1]: not those that reduce excitation (i.e., ketamine) reverse the tinnitus behavior

CN1C(=O)CN=C(c2ccccc2)c2cc(Cl)ccc21 [diazepam]
effect on bronchoconstriction induced by methacholine ([2]; diazepam aerosol, 12 patients with well controlled asthma): reduced the bronchoconstriction induced by methacholine | FEV1 after methacholine inhalation [2, 5]: 2.21 L | FEV1 before methacholine inhalation [2, 5]: 2.48 L

O=C1CN=C(c2ccccc2Cl)c2cc([N+](=O)[O-])ccc2N1 [clonazepam]
effect on symptoms of tinnitus [3]: control some symptoms of tinnitus

CC(=O)[C@H]1CC[C@H]2[C@@H]3CCC4=CC(=O)CC[C@]4(C)[C@H]3CC[C@]12C [Progesterone]
effect on craving to cocaine [4]: decrease craving to cocaine

C=CC(N)CCC(=O)O (stereo not drawn) [vigabatrin]
effect on tinnitus behavior [1]: reverse the tinnitus behavior

CC(=O)OC(C)C[N+](C)(C)C (stereo not drawn) [methacholine]
FEV1 after methacholine inhalation [2, 6]: 1.69 L | FEV1 before methacholine inhalation [2, 6]: 2.98 L
